This assay concerns the target T1, hPrp28ΔN (Homo sapiens, UniProt Q9BUQ8).
T1 construct: gene DDX23; helicase domain plus short N-terminal extension, residues 338-820; GST tag cleaved with PreScission protease; E. coli BL21 Star (DE3)
T1 sequence (Q9BUQ8 338-820): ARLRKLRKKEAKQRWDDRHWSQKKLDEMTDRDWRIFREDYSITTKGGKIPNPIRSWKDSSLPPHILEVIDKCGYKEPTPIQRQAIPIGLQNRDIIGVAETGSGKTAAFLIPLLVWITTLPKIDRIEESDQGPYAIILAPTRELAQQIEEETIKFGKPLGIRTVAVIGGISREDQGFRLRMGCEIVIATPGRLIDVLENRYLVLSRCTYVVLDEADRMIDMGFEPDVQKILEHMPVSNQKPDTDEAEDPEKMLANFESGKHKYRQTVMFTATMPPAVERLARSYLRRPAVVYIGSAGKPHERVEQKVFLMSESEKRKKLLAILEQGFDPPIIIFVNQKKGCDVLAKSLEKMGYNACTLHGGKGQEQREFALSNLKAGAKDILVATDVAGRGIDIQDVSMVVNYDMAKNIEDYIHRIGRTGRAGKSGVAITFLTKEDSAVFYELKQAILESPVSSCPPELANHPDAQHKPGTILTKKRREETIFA
Nature of the assay: fluorescence titration, Trp emission at […] nm (excitation […] nm). It is filed as binding.

Where only a bound is given, the exact number is not on record here.

Turning to `CNc1ccccc1C(=O)O[C@H]1[C@@H](O)[C@H](n2cnc3c(N)ncnc32)O[C@@H]1CO[P@@](=O)(O)O[P@](=O)(O)OP(=O)(O)O` [mant-ATP], the Kd is > 400 µM.

One may read the Kd as the free concentration of one partner at which half of the binding sites on the other are occupied at equilibrium, for simple one-to-one binding. High values mean a looser complex, low ones a tighter complex.

Source of the values: publication PMC4051504, “Structural and functional analysis of the human spliceosomal DEAD-box helicase Prp28” (Acta Crystallographica Section D: Biological Crystallography, 2014).
